Measurements reported in paper PMC2493416 (Anesthesia and analgesia, 2008).

Tests used:
[1] = target: N-methyl-D-aspartate receptor (NMDAR) NR1/NR2B (Homo sapiens, UniProt Q05586+Q13224); assay: two-electrode voltage clamp in oocytes, inhibition concentration-response; format: cell-based
[2] = target: γ-aminobutyric acid type A receptor (GABAAR) α1β2γ2s (Homo sapiens, UniProt P14867+P47870); assay: whole-cell patch clamp, shift of GABA EC50; format: cell-based
Chain of γ-aminobutyric acid type A receptor (GABAAR) α1β2γ2s (P14867 28-456): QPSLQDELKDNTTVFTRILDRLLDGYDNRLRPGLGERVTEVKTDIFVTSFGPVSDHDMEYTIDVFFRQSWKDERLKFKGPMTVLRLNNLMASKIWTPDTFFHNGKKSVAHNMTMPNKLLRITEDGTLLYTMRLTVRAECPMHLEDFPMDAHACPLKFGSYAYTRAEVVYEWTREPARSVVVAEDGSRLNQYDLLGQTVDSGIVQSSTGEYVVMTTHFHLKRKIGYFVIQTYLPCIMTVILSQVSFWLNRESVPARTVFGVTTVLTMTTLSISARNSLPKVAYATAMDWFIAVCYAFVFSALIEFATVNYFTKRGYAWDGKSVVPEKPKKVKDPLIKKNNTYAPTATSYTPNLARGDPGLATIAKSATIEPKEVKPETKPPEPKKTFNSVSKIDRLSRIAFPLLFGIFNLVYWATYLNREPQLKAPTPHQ
Chain of γ-aminobutyric acid type A receptor (GABAAR) α1β2γ2s (P47870 26-512): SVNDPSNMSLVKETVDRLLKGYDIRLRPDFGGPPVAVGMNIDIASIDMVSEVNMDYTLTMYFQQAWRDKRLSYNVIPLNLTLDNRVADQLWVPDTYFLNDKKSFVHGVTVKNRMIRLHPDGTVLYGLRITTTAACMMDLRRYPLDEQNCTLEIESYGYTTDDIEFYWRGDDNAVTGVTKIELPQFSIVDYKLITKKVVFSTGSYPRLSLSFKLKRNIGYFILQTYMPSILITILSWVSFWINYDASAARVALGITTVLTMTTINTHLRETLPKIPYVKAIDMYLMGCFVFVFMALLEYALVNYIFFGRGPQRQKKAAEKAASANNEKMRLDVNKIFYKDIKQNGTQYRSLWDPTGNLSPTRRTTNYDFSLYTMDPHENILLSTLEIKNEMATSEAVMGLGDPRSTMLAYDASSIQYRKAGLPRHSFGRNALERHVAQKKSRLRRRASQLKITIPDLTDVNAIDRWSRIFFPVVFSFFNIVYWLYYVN
Chain of γ-aminobutyric acid type A receptor (GABAAR) α1β2γ2s (P18507 40-475 partner): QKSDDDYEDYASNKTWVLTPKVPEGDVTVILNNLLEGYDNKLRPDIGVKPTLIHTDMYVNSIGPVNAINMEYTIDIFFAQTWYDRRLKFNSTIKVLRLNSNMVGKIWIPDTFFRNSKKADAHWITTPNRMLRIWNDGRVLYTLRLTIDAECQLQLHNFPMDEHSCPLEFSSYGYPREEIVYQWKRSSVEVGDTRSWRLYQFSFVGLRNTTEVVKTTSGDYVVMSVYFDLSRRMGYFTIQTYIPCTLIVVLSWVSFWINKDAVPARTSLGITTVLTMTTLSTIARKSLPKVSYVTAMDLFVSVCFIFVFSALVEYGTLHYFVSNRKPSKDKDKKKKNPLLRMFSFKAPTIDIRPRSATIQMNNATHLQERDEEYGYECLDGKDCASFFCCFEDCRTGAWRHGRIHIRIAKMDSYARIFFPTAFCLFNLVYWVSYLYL

Chain of N-methyl-D-aspartate receptor (NMDAR) NR1/NR2B (Q13224 27-1484, other chains not shown): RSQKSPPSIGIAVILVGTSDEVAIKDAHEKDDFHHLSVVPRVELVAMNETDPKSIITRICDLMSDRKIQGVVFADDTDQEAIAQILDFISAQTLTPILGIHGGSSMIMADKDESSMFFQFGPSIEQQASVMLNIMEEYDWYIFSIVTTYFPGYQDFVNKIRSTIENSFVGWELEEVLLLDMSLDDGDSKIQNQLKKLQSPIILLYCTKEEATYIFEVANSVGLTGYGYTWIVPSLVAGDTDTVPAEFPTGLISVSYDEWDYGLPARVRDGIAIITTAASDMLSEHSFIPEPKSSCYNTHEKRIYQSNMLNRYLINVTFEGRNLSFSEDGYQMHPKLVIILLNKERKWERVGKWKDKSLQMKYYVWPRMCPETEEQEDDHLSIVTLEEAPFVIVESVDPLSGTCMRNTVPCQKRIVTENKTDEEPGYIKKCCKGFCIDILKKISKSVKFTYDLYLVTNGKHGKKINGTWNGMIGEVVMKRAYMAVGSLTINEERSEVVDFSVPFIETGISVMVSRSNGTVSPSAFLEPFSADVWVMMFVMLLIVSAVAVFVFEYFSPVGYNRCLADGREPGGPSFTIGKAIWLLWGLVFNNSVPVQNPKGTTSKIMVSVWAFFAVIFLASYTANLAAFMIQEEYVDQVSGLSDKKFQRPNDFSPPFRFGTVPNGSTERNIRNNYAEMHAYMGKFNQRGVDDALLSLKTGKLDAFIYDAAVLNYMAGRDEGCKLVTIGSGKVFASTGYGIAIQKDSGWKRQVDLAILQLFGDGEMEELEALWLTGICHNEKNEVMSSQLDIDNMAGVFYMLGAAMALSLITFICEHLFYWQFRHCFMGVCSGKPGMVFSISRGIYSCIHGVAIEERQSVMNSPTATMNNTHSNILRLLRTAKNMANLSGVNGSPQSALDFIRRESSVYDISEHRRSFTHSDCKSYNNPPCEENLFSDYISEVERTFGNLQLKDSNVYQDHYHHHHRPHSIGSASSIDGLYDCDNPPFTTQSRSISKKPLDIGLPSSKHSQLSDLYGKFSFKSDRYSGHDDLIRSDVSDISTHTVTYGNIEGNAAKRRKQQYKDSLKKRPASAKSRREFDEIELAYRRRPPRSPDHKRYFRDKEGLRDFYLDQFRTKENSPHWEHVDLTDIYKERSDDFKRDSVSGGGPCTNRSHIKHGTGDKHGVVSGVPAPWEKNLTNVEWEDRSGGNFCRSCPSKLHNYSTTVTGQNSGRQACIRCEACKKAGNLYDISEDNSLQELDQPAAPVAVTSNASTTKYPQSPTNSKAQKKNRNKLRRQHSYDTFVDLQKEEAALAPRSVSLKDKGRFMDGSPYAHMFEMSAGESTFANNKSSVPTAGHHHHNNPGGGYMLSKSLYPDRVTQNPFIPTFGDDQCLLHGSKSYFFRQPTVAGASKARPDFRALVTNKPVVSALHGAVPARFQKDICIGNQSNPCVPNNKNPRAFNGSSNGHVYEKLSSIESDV

**Q.** How did the IC50 [1] turn out when `c1ccccc1` [benzene] was run?
**A.** 340 ± 40 µM

**Q.** For `ClC(Cl)Cl` [chloroform], which “whole-cell patch clamp, shift of GABA EC50” value [2] is on record?
**A.** Both halothane and chloroform decreased the GABA EC50 in a dose dependent and saturable manner

**Q.** `FC(F)OC(Cl)C(F)(F)F` (stereo not drawn) [ISO, isoflurane] was tested. Which IC50 [1] did it give?
**A.** 2400 µM
